Consider ten compounds from patent publication CN1119437A, “环缩酚酸肽pf1022衍生物” (Meiji Seika Kaisha Ltd, priority 1993, dated 1996).

One experiment has as its system 鸡蛔虫. Description: Chicken roundworm removal test (Test 1). Format: in vivo.
The subject of a further experiment is 巴西日园线虫. Description: Anthelmintic efficacy against rat intestinal nematode (Test 3). The experiment is classed as in vivo. The settings on record: male Wistar rats, 2000 larvae s.c., 10 mg/kg 7 days after infection, adult worms in small intestine counted 10 days after dosing.

As for `CC(C)C[C@H]1C(=O)O[C@H](Cc2ccc(O)cc2)C(=O)N(C)[C@@H](CC(C)C)C(=O)O[C@H](C)C(=O)N(C)[C@@H](CC(C)C)C(=O)O[C@H](Cc2ccccc2)C(=O)N(C)[C@@H](CC(C)C)C(=O)O[C@H](C)C(=O)N1C` [PF1022 E, 环—(—L—MeLeu—D—Lac—L—MeLeu—D—TYRA—L—MeLeu-D—Lac—L—Mekeu—D—PhLac)], the 杀虫率 in the experiment with 鸡蛔虫 (dose 0.5 mg/kg) came to 70%. In the experiment on 巴西日园线虫, the “存留虫收(average value±SD)” value amounted to 2175±134.4.

On to `CC(C)CC1C(=O)OC(C)C(=O)N(C)C(CC(C)C)C(=O)OC(C)C(=O)N(C)C(CC(C)C)C(=O)OC(C)C(=O)N(C)C(CC(C)C)C(=O)OC(C)C(=O)N1C` (centres unmarked) [PF1022-002, 环—(L—meLeu—D—Lac—)4], for which, in the experiment on 巴西日园线虫, the “存留虫收(average value±SD)” value worked out at 1976.5±306.2.

Compound `CC(C)C[C@H]1OC(=O)[C@H](CC(C)C)N(C)C(=O)[C@@H](C)OC(=O)[C@H](CC(C)C)N(C)C(=O)[C@@H](Cc2ccccc2)OC(=O)[C@H](CC(C)C)N(C)C(=O)[C@@H](C)OC(=O)[C@H](CC(C)C)N(C)C1=O` [PF1022-003, 环—(—L—MeLeu—D—Lac—L—MeLeu—D—PhLac—L—Meleu—D—Lac—L—Meleu—D—LEUA)] displayed a 杀虫率 with 鸡蛔虫 (dose 10 mg/kg) of 76%. Moreover, the “存留虫收(average value±SD)” value in the experiment on 巴西日园线虫 came to 689±48.1.

In the case of `CC(C)CC1NC(=O)C(Cc2ccccc2)OC(=O)C(CC(C)C)N(C)C(=O)C(C)OC(=O)C(CC(C)C)NC(=O)C(Cc2ccccc2)OC(=O)C(CC(C)C)N(C)C(=O)C(C)OC1=O` (centres unmarked) [PF1022-218, 环—(L—MeLeu—D—PhLac—L—Leu—D—Lac)2], the “存留虫收(average value±SD)” value with 巴西日园线虫 came to 2400±362.0.

Regarding `CC(C)C[C@@H]1NC(=O)[C@@H](C)OC(=O)[C@H](CC(C)C)N(C)C(=O)[C@@H](Cc2ccccc2)OC(=O)[C@H](CC(C)C)NC(=O)[C@@H](C)OC(=O)[C@H](CC(C)C)N(C)C(=O)[C@@H](Cc2ccccc2)OC1=O` [PF1022-219, 环—(L—MeLeu—D—Lac—L—Leu—D—PhLac)2], the “存留虫收(average value±SD)” value in the experiment on 巴西日园线虫 turned out to be 2084.5±94.0.

As for `CC(C)CC1C(=O)OC(CC2CCCCC2)C(=O)N(C)C(CC(C)C)C(=O)OC(C)C(=O)N(C)C(CC(C)C)C(=O)OC(CC2CCCCC2)C(=O)N(C)C(CC(C)C)C(=O)OC(C)C(=O)N1C` (centres unmarked) [PF1022-ADH, 十二氢—PF 1022], the 杀虫率 with 鸡蛔虫 (dose 5 mg/kg) was 30%.

Compound `CC(C)CC1C(=O)OC(CC2CCCCC2)C(=O)N(C)C(CC(C)C)C(=O)OC(C)C(=O)N(C)C(CC(C)C)C(=O)OC(Cc2ccccc2)C(=O)N(C)C(CC(C)C)C(=O)OC(C)C(=O)N1C` (centres unmarked) [PF1022-AHH, 六氢—PF1022] showed a 杀虫率 in the experiment on 鸡蛔虫 (dose 5 mg/kg) of 62%.

Take `CC(C)C[C@H]1C(=O)O[C@H](Cc2ccccc2)C(=O)N(C)[C@@H](CC(C)C)C(=O)O[C@H](C)C(=O)N(C)[C@@H](CC(C)C)C(=O)O[C@H](Cc2ccccc2)C(=O)N(C)[C@@H](CC(C)C)C(=O)O[C@H](C)C(=O)N1C` [PF1022]: the 杀虫率 is given as 50-70% with 鸡蛔虫 (dose 0.5 mg/kg) and 60-86% in the experiment with 鸡蛔虫 (dose 1.0 mg/kg). The “存留虫收(average value±SD)” value in the experiment on 巴西日园线虫 turned out to be 403±32.5.

In the experiment with 鸡蛔虫 (dose 5 mg/kg), “环—(L—MeLeu—D—PhLac—L—MeLeu—D—Lac—L—MeLeu—D—TYRA(OBn)—L—MeLeu—D—Lac) [PF1022-022]” registered a 杀虫率 of 84%.

For “环—(L—MeLeu—D—VALA—L—MeLeu—D—Lac)2 [PF1022-209]”, in the experiment with 巴西日园线虫, the “存留虫收(average value±SD)” value is listed as 827±388.9.
